Measured values published in US20070049564A1 (Wyeth, priority 2005, published 2007).
≈ marks a conversion by molar mass, not a printed value.

Assays:
Assay in all cases: MIC, broth microdilution
[1] = system: S. aureus GC 1079; conditions: Staphylococcus aureus, GC1079, S. aureus GC 1079
Protocol: (§1) Antimicrobial susceptibility testing. The in vitro activities of the antibiotics are determined by the broth microdilution method as recommended by the National Committee for Clinical Laboratory Standards (NCCLS) (1). Mueller-Hinton II broth (MHBII)(BBL Cockeysville, Md.) is the medium employed in the testing procedures. Microtiter plates containing serial dilutions of each antimicrobial agent are inoculated with each organism to yield the appropriate density (10^5 CFU/ml) in a 100 μl final volume. The plates are incubated for 18-22 hours at 35° C. in ambient air.
(§2) Representative compounds were first incubated in mouse serum for an hour prior to the in vitro testing against a panel of selected gram-positive and gram-negative bacteria strains. All compounds were also pre-incubated in water for an hour prior to testing as control. Representative compounds of Formula I were incubated in human serum prior to MIC determination.

[2] = system: S. agalactiae GC 4564; conditions: Streptococcus agalactiae, GC4564, S. agalactiae GC 4564
Protocol: as §1, §2

[3] = system: E. coli GC 2235; conditions: Escherichia coli, GC2235, E. coli GC 2235
[4] = system: E. coli GC 2203; conditions: Escherichia coli, GC2203, E. coli GC 2203
[5] = system: S. pyogenes GC 4563; conditions: Streptococcus pyogenes, GC4563, S. pyogenes GC 4563
Protocol: Antimicrobial susceptibility testing. The in vitro activities of the antibiotics are determined by the broth microdilution method as recommended by the National Committee for Clinical Laboratory Standards (NCCLS) (1). Mueller-Hinton II broth (MHBII)(BBL Cockeysville, Md.) is the medium employed in the testing procedures. Microtiter plates containing serial dilutions of each antimicrobial agent are inoculated with each organism to yield the appropriate density (10^5 CFU/ml) in a 100 μl final volume. The plates are incubated for 18-22 hours at 35° C. in ambient air. […] Standard Pharmacological Test Procedures
Presented in Tables I-XIII are representative compounds of Formula I which were evaluated against a panel of 40 selected gram-positive and gram-negative bacteria strains by pre-incubation in water, mouse serum or human serum. Representative compounds were first incubated in mouse serum for an hour prior to the in vitro testing against a panel of selected gram-positive and gram-negative bacteria strains. All compounds were also pre-incubated in water for an hour prior to testing as control. Representative compounds of Formula I were incubated in human serum prior to MIC determination.

[6] = system: E. coli GC 1073; conditions: Escherichia coli, GC1073, E. coli GC 1073
[7] = system: S. aureus GC 6335; conditions: Staphylococcus aureus, GC6335, S. aureus GC 6335
[8] = system: E. coli GC 2233; conditions: Escherichia coli, GC2233, E. coli GC 2233
[9] = system: E. coli GC 3226; conditions: Escherichia coli, GC3226, E. coli GC 3226
[10] = system: E. coli GC 4560; conditions: Escherichia coli, GC4560, E. coli GC 4560
[11] = system: S. aureus GC 6467; conditions: Staphylococcus aureus, GC6467, S. aureus GC 6467
[12] = system: E. coli GC 2234; conditions: Escherichia coli, GC2234, E. coli GC 2234
[13] = system: E. coli GC 4559; conditions: Escherichia coli, GC4559, E. coli GC 4559
[14] = system: S. typhimurium GC 2172; conditions: Salmonella enterica, TYPHIMURIUM, S. typhimurium GC 2172
[15] = system: E. coli GC 6465; conditions: Escherichia coli, GC6465, E. coli GC 6465
[16] = system: E. coli GC 2270; conditions: Escherichia coli, GC2270, E. coli GC 2270
[17] = system: E. coli GC 2271; conditions: Escherichia coli, GC2271, E. coli GC 2271
[18] = system: E. faecium GC 4556; conditions: Enterococcus faecium, GC4556, E. faecium GC 4556
[19] = system: S. aureus GC 6466; conditions: Staphylococcus aureus, GC6466, S. aureus GC 6466
[20] = system: S. aureus GC 6469; conditions: Staphylococcus aureus, GC6469, S. aureus GC 6469

Compound	MIC ([1]; Mouse Serum pre-incubation) [µg/mL]	MIC ([1]; Water pre-incubation) [µg/mL]	MIC ([2]; Mouse Serum pre-incubation) [µg/mL]	MIC ([2]; Water pre-incubation) [µg/mL]	MIC ([3]; Mouse Serum pre-incubation) [µg/mL]	MIC ([3]; Water pre-incubation) [µg/mL]	MIC ([4]; Mouse Serum pre-incubation) [µg/mL]	MIC ([4]; Water pre-incubation) [µg/mL]	MIC ([5]; Mouse Serum pre-incubation) [µg/mL]	MIC ([5]; Water pre-incubation) [µg/mL]	MIC ([6]; Mouse Serum pre-incubation) [µg/mL]	MIC ([6]; Water pre-incubation) [µg/mL]	MIC ([7]; Mouse Serum pre-incubation) [µg/mL]	MIC ([7]; Water pre-incubation) [µg/mL]	MIC ([8]; Mouse Serum pre-incubation) [µg/mL]	MIC ([8]; Water pre-incubation) [µg/mL]	MIC ([9]; Mouse Serum pre-incubation) [µg/mL]	MIC ([9]; Water pre-incubation) [µg/mL]	MIC ([10]; Mouse Serum pre-incubation) [µg/mL]	MIC ([10]; Water pre-incubation) [µg/mL]	other results
CCCN(CC(=O)Nc1cc(N(C)C)c2c(c1O)C(=O)C1=C(O)[C@]3(O)C(=O)C(C(N)=O)=C(O)[C@@H](N(C)C)[C@@H]3C[C@@H]1C2)C(=O)OCOC(=O)C1CCC1 [Example 7, ({[(2-{[(5aR,6aS,7S,10aS)-9-(aminocarbonyl)-4,7-bis(dimethylamino)-1,8,10a,11-tetrahydroxy-10,12-dioxo-5,5a,6,6a,7,10,10a,12-octahydrotetracen-2-yl]amino}-2-oxoethyl)(propyl)amino]carbonyl}oxy)methyl cyclobutanecarboxylate]	1 (≈ 1.37 µM)	4 (≈ 5.5 µM)	0.25 (≈ 0.344 µM)	0.5 (≈ 0.687 µM)	0.5 (≈ 0.687 µM)	4 (≈ 5.5 µM)	0.5 (≈ 0.687 µM)	4 (≈ 5.5 µM)	0.25 (≈ 0.344 µM)	0.25 (≈ 0.344 µM)	0.5 (≈ 0.687 µM)	8 (≈ 11 µM)	1 (≈ 1.37 µM)	1 (≈ 1.37 µM)	0.5 (≈ 0.687 µM)	4 (≈ 5.5 µM)	0.5 (≈ 0.687 µM)	8 (≈ 11 µM)	0.25 (≈ 0.344 µM)	0.5 (≈ 0.687 µM)	MIC ([11]; Mouse Serum pre-incubation): 4 µg/mL (≈ 5.5 µM); MIC ([11]; Water pre-incubation): 4 µg/mL (≈ 5.5 µM); MIC ([12]; Mouse Serum pre-incubation): 1 µg/mL (≈ 1.37 µM); MIC ([12]; Water pre-incubation): 4 µg/mL (≈ 5.5 µM); MIC ([13]; Mouse Serum pre-incubation): 1 µg/mL (≈ 1.37 µM); MIC ([13]; Water pre-incubation): 8 µg/mL (≈ 11 µM); MIC ([14]; Mouse Serum pre-incubation): 4 µg/mL (≈ 5.5 µM); MIC ([14]; Water pre-incubation): > 64 µg/mL; MIC ([15]; Mouse Serum pre-incubation): 16 µg/mL (≈ 22 µM); MIC ([15]; Water pre-incubation): > 64 µg/mL; MIC ([16]; Mouse Serum pre-incubation): 0.5 µg/mL (≈ 0.687 µM); MIC ([16]; Water pre-incubation): 4 µg/mL (≈ 5.5 µM); MIC ([17]; Mouse Serum pre-incubation): 0.5 µg/mL (≈ 0.687 µM); MIC ([17]; Water pre-incubation): 4 µg/mL (≈ 5.5 µM); MIC ([18]; Mouse Serum pre-incubation): 0.5 µg/mL (≈ 0.687 µM); MIC ([18]; Water pre-incubation): 1 µg/mL (≈ 1.37 µM); MIC ([19]; Mouse Serum pre-incubation): 0.5 µg/mL (≈ 0.687 µM); MIC ([19]; Water pre-incubation): 0.5 µg/mL (≈ 0.687 µM); MIC ([20]; Mouse Serum pre-incubation): 2 µg/mL (≈ 2.75 µM); MIC ([20]; Water pre-incubation): 4 µg/mL (≈ 5.5 µM)
CCCN(CC(=O)Nc1cc(N(C)C)c2c(c1O)C(=O)C1=C(O)[C@]3(O)C(=O)C(C(N)=O)=C(O)[C@@H](N(C)C)[C@@H]3C[C@@H]1C2)C(=O)OCOC(=O)c1ccc(F)cc1 [Example 8, ({[(2-{[(5aR,6aS,7S,10aS)-9-(aminocarbonyl)-4,7-bis(dimethylamino)-1,8,10a,11-tetrahydroxy-10,12-dioxo-5,5a,6,6a,7,10,10a,12-octahydrotetracen-2-yl]amino}-2-oxoethyl)(propyl)amino]carbonyl}oxy)methyl 4-fluorobenzoate]	2 (≈ 2.6 µM)	4 (≈ 5.21 µM)	0.25 (≈ 0.326 µM)	0.5 (≈ 0.651 µM)	1 (≈ 1.3 µM)	16 (≈ 20.8 µM)	1 (≈ 1.3 µM)	32 (≈ 41.7 µM)	0.12 (≈ 0.156 µM)	0.5 (≈ 0.651 µM)	1 (≈ 1.3 µM)	32 (≈ 41.7 µM)	1 (≈ 1.3 µM)	4 (≈ 5.21 µM)	1 (≈ 1.3 µM)	32 (≈ 41.7 µM)	2 (≈ 2.6 µM)	64 (≈ 83.4 µM)	0.5 (≈ 0.651 µM)	4 (≈ 5.21 µM)	MIC ([11]; Mouse Serum pre-incubation): 4 µg/mL (≈ 5.21 µM); MIC ([11]; Water pre-incubation): 8 µg/mL (≈ 10.4 µM); MIC ([12]; Mouse Serum pre-incubation): 1 µg/mL (≈ 1.3 µM); MIC ([12]; Water pre-incubation): 32 µg/mL (≈ 41.7 µM); MIC ([13]; Mouse Serum pre-incubation): 1 µg/mL (≈ 1.3 µM); MIC ([13]; Water pre-incubation): 64 µg/mL (≈ 83.4 µM); MIC ([14]; Mouse Serum pre-incubation): 8 µg/mL (≈ 10.4 µM); MIC ([14]; Water pre-incubation): > 64 µg/mL; MIC ([15]; Mouse Serum pre-incubation): 8 µg/mL (≈ 10.4 µM); MIC ([15]; Water pre-incubation): > 64 µg/mL; MIC ([16]; Mouse Serum pre-incubation): 1 µg/mL (≈ 1.3 µM); MIC ([16]; Water pre-incubation): 64 µg/mL (≈ 83.4 µM); MIC ([17]; Mouse Serum pre-incubation): 1 µg/mL (≈ 1.3 µM); MIC ([17]; Water pre-incubation): 32 µg/mL (≈ 41.7 µM); MIC ([18]; Mouse Serum pre-incubation): 1 µg/mL (≈ 1.3 µM); MIC ([18]; Water pre-incubation): 4 µg/mL (≈ 5.21 µM); MIC ([19]; Mouse Serum pre-incubation): 0.5 µg/mL (≈ 0.651 µM); MIC ([19]; Water pre-incubation): 1 µg/mL (≈ 1.3 µM); MIC ([20]; Mouse Serum pre-incubation): 2 µg/mL (≈ 2.6 µM); MIC ([20]; Water pre-incubation): 8 µg/mL (≈ 10.4 µM)
CCCN(CC(=O)Nc1cc(N(C)C)c2c(c1O)C(=O)C1=C(O)[C@]3(O)C(=O)C(C(N)=O)=C(O)[C@@H](N(C)C)[C@@H]3C[C@@H]1C2)C(=O)OCOC(=O)C(C)(C)C [Example 9, ({[(2-{[(5aR,6aS,7S,10aS)-9-(aminocarbonyl)-4,7-bis(dimethylamino)-1,8,10a,11-tetrahydroxy-10,12-dioxo-5,5a,6,6a,7,10,10a,12-octahydrotetracen-2-yl]amino}-2-oxoethyl)(propyl)amino]carbonyl}oxy)methyl pivalate]	2 (≈ 2.74 µM)	1 (≈ 1.37 µM)	0.12 (≈ 0.164 µM)	0.25 (≈ 0.343 µM)	0.5 (≈ 0.685 µM)	4 (≈ 5.48 µM)	0.5 (≈ 0.685 µM)	4 (≈ 5.48 µM)	< 0.06	< 0.06	1 (≈ 1.37 µM)	8 (≈ 11 µM)	0.25 (≈ 0.343 µM)	0.5 (≈ 0.685 µM)	0.5 (≈ 0.685 µM)	4 (≈ 5.48 µM)	2 (≈ 2.74 µM)	16 (≈ 21.9 µM)	0.25 (≈ 0.343 µM)	1 (≈ 1.37 µM)	MIC ([11]; Mouse Serum pre-incubation): 1 µg/mL (≈ 1.37 µM); MIC ([11]; Water pre-incubation): 2 µg/mL (≈ 2.74 µM); MIC ([12]; Mouse Serum pre-incubation): 0.5 µg/mL (≈ 0.685 µM); MIC ([12]; Water pre-incubation): 8 µg/mL (≈ 11 µM); MIC ([13]; Mouse Serum pre-incubation): 1 µg/mL (≈ 1.37 µM); MIC ([13]; Water pre-incubation): 8 µg/mL (≈ 11 µM); MIC ([14]; Mouse Serum pre-incubation): 8 µg/mL (≈ 11 µM); MIC ([14]; Water pre-incubation): > 64 µg/mL; MIC ([15]; Mouse Serum pre-incubation): 4 µg/mL (≈ 5.48 µM); MIC ([15]; Water pre-incubation): > 64 µg/mL; MIC ([16]; Mouse Serum pre-incubation): 0.5 µg/mL (≈ 0.685 µM); MIC ([16]; Water pre-incubation): 4 µg/mL (≈ 5.48 µM); MIC ([17]; Mouse Serum pre-incubation): 0.5 µg/mL (≈ 0.685 µM); MIC ([17]; Water pre-incubation): 8 µg/mL (≈ 11 µM); MIC ([18]; Mouse Serum pre-incubation): 0.25 µg/mL (≈ 0.343 µM); MIC ([18]; Water pre-incubation): 0.5 µg/mL (≈ 0.685 µM); MIC ([19]; Mouse Serum pre-incubation): 0.12 µg/mL (≈ 0.164 µM); MIC ([19]; Water pre-incubation): 0.12 µg/mL (≈ 0.164 µM); MIC ([20]; Mouse Serum pre-incubation): 1 µg/mL (≈ 1.37 µM); MIC ([20]; Water pre-incubation): 2 µg/mL (≈ 2.74 µM)
